Columns and labels:
Format in all cases: in vitro ADME
[1] = Microsomal stability assay, human liver microsomes; conditions: for CLINT human: human liver microsomes 0.5 mg/mL, 1 μM compound; for CLHEP human: predicted hepatic clearance, human microsomes
[2] = Microsomal stability assay, rat liver microsomes; conditions: for CLHEP rat: predicted hepatic clearance, rat microsomes; for CLINT rat: rat liver microsomes 0.5 mg/mL, 1 μM compound
[3] = Microsomal stability assay, mouse liver microsomes
[4] = mouse liver microsomes 0.5 mg/mL, 1 μM compound
[5] = predicted hepatic clearance, mouse microsomes
[6] = male, CD-1, mouse, 1 μM, pH 7.4

Structure (SMILES)	CLINT human [1] [mL/min/kg body weight]	CLHEP human [1] [mL/min/kg body weight]	CLHEP rat [2] [mL/min/kg body weight]	CLINT rat [2] [mL/min/kg body weight]	CLINT mouse [3, 4] [mL/min/kg body weight]	CLHEP mouse [3, 5] [mL/min/kg body weight]	CLHEP mouse [3, 6] [mL/min/kg body weight]	CLINT mouse ([3]; mouse, microsomes) [mL/min/kg body weight]
O=C(N[C@@H](Cn1ccnc1)c1ccc(Cl)cc1Cl)c1ccc(-c2nnc(-c3ccc(OCC(F)(F)F)cc3F)o2)cc1 [Compound 3, (R)-N-(1-(2,4-Dichlorophenyl)-2-(1H-imidazol-1-yl)ethyl)-4-(5-(2-fluoro-4-(2,2,2-trifluoroethoxy)phenyl)-1,3,4-oxadiazol-2-yl)-benzamide]	16.5	9.24	34	64	88	44	–	–
O=C(N[C@@H](Cn1ccnc1)c1ccc(Cl)cc1Cl)c1ccc(-c2nnc(-c3cc(F)cc(OCC(F)(F)F)c3)o2)cc1 [Compound 4, (R)-N-(1-(2,4-Dichlorophenyl)-2-(1H-imidazol-1-yl)ethyl)-4-(5-(3-fluoro-5-(2,2,2-trifluoroethoxy)phenyl)-1,3,4-oxadiazol-2-yl)-benzamide]	11.3	7.33	29	50.4	–	–	43.6	84.7
O=C(N[C@@H](Cn1ccnc1)c1ccc(Cl)cc1Cl)c1ccc(-c2nnc(-c3cccc(-c4ccccn4)c3)o2)cc1 [Compound 9, (R)-N-(1-(2,4-Dichlorophenyl)-2-(1H-imidazol-1-yl)ethyl)-4-(5-(3-(pyridin-2-yl)phenyl)-1,3,4-oxadiazol-2-yl)benzamide]	13.1	8.06	35	68	–	–	56	152
O=C(N[C@@H](Cn1ccnc1)c1ccc(Cl)cc1Cl)c1ccc(-c2nnc(-c3ccc(-c4ccccn4)cc3)o2)cc1 [Compound 10, (R)-N-(1-(2,4-Dichlorophenyl)-2-(1H-imidazol-1-yl)ethyl)-4-(5-(4-(pyridin-2-yl)phenyl)-1,3,4-oxadiazol-2-yl)benzamide]	10.8	7.15	40	94	95	46	–	–
O=C(N[C@@H](Cn1ccnc1)c1ccc(Cl)cc1Cl)c1ccc(-c2nnc(-c3cc(F)cc(-c4ccccn4)c3)o2)cc1 [Compound 11, (R)-N-(1-(2,4-Dichlorophenyl)-2-(1H-imidazol-1-yl)ethyl)-4-(5-(3-fluoro-5-(pyridin-2-yl)phenyl)-1,3,4-oxadiazol-2-yl)benzamide]	96.6	17.3	24.0	36.0	55.0	34	–	–
O=C(N[C@@H](Cn1ccnc1)c1ccc(Cl)cc1Cl)c1ccc(-c2nnc(-c3cc(F)cc(-c4ncncc4F)c3)o2)cc1 [Compound 15, (R)-N-(1-(2,4-Dichlorophenyl)-2-(1H-imidazol-1-yl)ethyl)-4-(5-(3-fluoro-5-(5-fluoropyrimidin-4-yl)phenyl)-1,3,4-oxadiazol-2-yl)-benzamide]	14.9	8.37	19.5	27.0	104	48.3	–	–

Results, then the molecule that gave them:

CLINT human [1] [mL/min/kg body weight]	CLHEP human [1] [mL/min/kg body weight]	CLHEP rat [2] [mL/min/kg body weight]	CLINT rat [2] [mL/min/kg body weight]	CLINT mouse [3, 4] [mL/min/kg body weight]	CLHEP mouse [3, 5] [mL/min/kg body weight]	CLHEP mouse [3, 6] [mL/min/kg body weight]	CLINT mouse ([3]; mouse, microsomes) [mL/min/kg body weight]	Structure (SMILES)
7.53	5.54	21	31	55	34	–	–	O=C(N[C@@H](Cn1ccnc1)c1ccc(Cl)cc1Cl)c1ccc(-c2nnc(-c3ccc(F)c(F)c3)o2)cc1 [Compound 1, (R)-N-(1-(2,4-Dichlorophenyl)-2-(1H-imidazol-1-yl)ethyl)-4-(5-(3,4-difluorophenyl)-1,3,4-oxadiazol-2-yl)benzamide]
6.06	4.07	24	36	60	36	–	–	O=C(N[C@@H](Cn1ccnc1)c1ccc(Cl)cc1Cl)c1ccc(-c2nnc(-c3ccc(C(F)(F)F)c(F)c3)o2)cc1 [Compound 2, (R)-N-(1-(2,4-Dichlorophenyl)-2-(1H-imidazol-1-yl)ethyl)-4-(5-(3-fluoro-4-(trifluoromethyl)phenyl)-1,3,4-oxadiazol-2-yl)benzamide]
11.4	7.39	35	70	–	–	49	107	O=C(N[C@@H](Cn1ccnc1)c1ccc(Cl)cc1Cl)c1ccc(-c2nnc(-c3ccc(Cl)c(Cl)c3)o2)cc1 [Compound 5, (R)-4-(5-(3,4-Dichlorophenyl)-1,3,4-oxadiazol-2-yl)-N-(1-(2,4-di-chlorophenyl)-2-(1H-imidazol-1-yl)ethyl)benzamide]
9.47	6.53	19	27	126	55	–	–	O=C(N[C@@H](Cn1ccnc1)c1ccc(Cl)cc1Cl)c1ccc(-c2nnc(-c3cccc(Br)c3)o2)cc1 [Compound 6, (R)-4-(5-(3-Bromophenyl)-1,3,4-oxadiazol-2-yl)-N-(1-(2,4-di-chlorophenyl)-2-(1H-imidazol-1-yl)ethyl)benzamide]
15	8.75	29.7	51.6	36.5	26.0	–	–	O=C(N[C@@H](Cn1ccnc1)c1ccc(Cl)cc1Cl)c1ccc(-c2nnc(-c3ccc(-c4ccccn4)cc3F)o2)cc1 [Compound 12, (R)-N-(1-(2/4-Dichlorophenyl)-2-(1H-imidazol-1-yl)ethyl)-4-(5-(4-(3-fluoropyridin-2-yl)phenyl)-1,3,4-oxadiazol-2-yl)benzamide]
10.2	6.85	29.0	49.4	238	65	–	–	O=C(N[C@@H](Cn1ccnc1)c1ccc(Cl)cc1Cl)c1ccc(-c2nnc(-c3cc(-c4ccccn4)ccc3F)o2)cc1 [Compound 13, (R)-N-(l-(2,4-Dichlorophenyl)-2-(TH-imidazol-l-yl)ethyl)-4-(5-(2-fluoro-5-(pyridin-2-yl)phenyl)-1,3,4-oxadiazol-2-yl)benzamide]
9.31	6.45	42	104	–	–	34.5	56	CS(=O)(=O)c1ccc(-c2nnc(-c3ccc(C(=O)N[C@@H](Cn4ccnc4)c4ccc(Cl)cc4Cl)cc3)o2)cc1Cl [Compound 14, (R)-4-(5-(3-Chloro-4-(methylsulfonyl)phenyl)-1,3,4-oxadiazol-2-yl)-N-(1-(2,4-dichlorophenyl)-2-(1H-imidazol-1-yl)ethyl)benzamide]
8.31	5.95	19.2	26.4	87	44	–	–	O=C(N[C@@H](Cn1ccnc1)c1ccc(Cl)cc1Cl)c1ccc(-c2nnc(-c3ccccc3)o2)cc1 [VNI, (R)-N-(1-(2,4-dichlorophenyl)-2-(1H−imidazol-1-yl)ethyl)-4-(5-phenyl-1,3,4-oxadiazol-2-yl)-benzamide, reference compound]

Source: paper PMC6176729 (Journal of medicinal chemistry, 2018)
